Test results reported in US9624268B2, “Oral peptide inhibitors of interleukin-23 receptor and their use to treat inflammatory bowel diseases” (Protagonist Therapeutics, Inc., priority 2014, dated 2017).

Test system: Sprague Dawley rats with DSS-induced colitis
Test: Rat colitis model: 9 days of 3% DSS-containing drinking water
Format: in vivo
Details: 100 mg/kg PO, QD
Method: Rat Colitis Model: 9 Days of 3% DSS-Containing Drinking Water
In this model, colitis was induced in SD rats by 9 days of ad lib exposure to drinking water containing 3% DSS. The disease activity index (DAI) score and ratio of colon weight:colon length were compared between three study groups (n=6 rats/group): vehicle, 3% DSS, and 3% DSS with positive control (sulfasalazine administered at 100 mg/kg PO, QD).
Acute colitis was induced by feeding female Sprague Dawley rats with 3% (wt/vol) DSS dissolved in drinking water. […] To quantify colitis with clinical activity, disease activity index (DAI) was determined daily for each animal as an average of three parameters: body weight change (scale 0-3), stool consistency (scale 0-3) and hemoccult blood (scale 0-3), as shown in Table 15. At necropsy, the entire colon was removed from the cecum to the rectum. The colon was measured for length, flushed with PBS to remove feces, weighed, and opened longitudinally to determine macroscopic score.

## O=C(O)c1cc(/N=N/c2ccc(S(=O)(=O)Nc3ccccn3)cc2)ccc1O [sulfasalazine]
  terminal ratio of colon weight:colon length, difference with and without treatment: significant
From Day 5
  disease activity index (DAI) score compared to DSS alone: attenuated the disease score
